The record followed here is patent US11352352B2, “Aminopyrimidine compound, preparation method therefor and use thereof” (BEIJING ADAMADLE BIOTECHNOLOGY LIMITED LIABILITY COMPANY, priority 2017, dated 2022).

The IC50 is the concentration needed to halve the response being measured. Read a high IC50 as a need for much substance.

What all share (test): Cell proliferation inhibition experiment, CellTiter-Glo (CTG) method
Type in all cases: cell-based
In general terms: ATP-based viability assays read luminescence as a measure of living cells.

One test relates to NCI-H1975. Particulars: for IC50: Homo sapiens, NCI-H1975, 72 h, NCI-H1975 cells, CTG, 3 days; for A-431/NCI-H1975 Selectivity: ratio of A-431 IC50 to NCI-H1975 IC50. The method in brief:
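NCI-H1975 cells with viability above 90% by trypan blue were seeded at 90 μL per well in black 96-well plates and incubated overnight at 37° C., 5% CO2. Compounds were added at nine concentrations in triplicate, and viability was measured with CellTiter-Glo luminescence on EnVision. IC50 came from non-linear S-curve fitting in GraphPad Prism 5.0.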

In a further test the test system is PC-9. Conditions: PC-9 cells, 3 days. Summed up: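 Cells in log-phase growth (viability above 90% by trypan blue) were seeded at 90 μL per well in black-walled, clear-bottom 96-well plates and incubated overnight at 37° C., 5% CO2. A T0 plate was read the next day. Test compounds were added at nine concentrations in triplicate with a solvent control. Viability was measured by CellTiter-Glo luminescence on EnVision, and IC50 came from non-linear S-curve fitting in GraphPad Prism 5.0.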

In another test the test system is A-431. Particulars: A-431 cells, 3 days. The method in brief: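 Cells seeded overnight at 37 °C, 5% CO2, then treated with nine 3-fold dilutions in triplicate, top 30 μM for A-431 and 1.111 μM for NCI-H1975 and PC-9; solvent control. After 3 days, viability read by CellTiter-Glo luminescence; IC50 from non-linear sigmoidal fit of survival rate.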

Consider `C=CC(=O)Nc1cc(Nc2cc(-c3ccc4c(cnn4C)c3)ncn2)c(OCC)cc1N(C)CCN(C)C(C)C` [compound 139], for which the IC50 was 43.1 nM in the test with NCI-H1975; 57.9 nM in the test on PC-9 (Homo sapiens, PC-9, 72 h); 1160 nM with A-431 (Homo sapiens, A-431, 72 h). Further, in the test with NCI-H1975, the “A-431/NCI-H1975 Selectivity” value amounted to 26.8.

As to `C=CC(=O)Nc1cc(Nc2cc(-c3ccc4c(cnn4C)c3)ncn2)c(OCC)cc1N(C)CCN(C)CC` [compound 140], the IC50 with NCI-H1975 turned out to be 11.7 nM; in the test on PC-9 (Homo sapiens, PC-9, 72 h), 13.8 nM; with A-431 (Homo sapiens, A-431, 72 h), 987 nM. The “A-431/NCI-H1975 Selectivity” value with NCI-H1975 is 84.4.

For `C=CC(=O)Nc1cc(Nc2cc(-c3ccc4c(cnn4C)c3)ncn2)c(OC(F)F)cc1N(C)CCN(C)CC` [compound 141], the IC50 was 8.4 nM in the test with NCI-H1975; 23.1 nM in the test on PC-9 (Homo sapiens, PC-9, 72 h); 539 nM with A-431 (Homo sapiens, A-431, 72 h). In the test on NCI-H1975, the “A-431/NCI-H1975 Selectivity” value came out at 64.2.

For the molecule `C=CC(=O)Nc1cc(Nc2cc(-c3ccc4c(cnn4C)c3)ncn2)c(OC)cc1N(C)C1CCN(C(C)C)CC1` [compound 142], the IC50 in the test on NCI-H1975 worked out at 24.5 nM; in the test with PC-9 (Homo sapiens, PC-9, 72 h), 32.6 nM; in the test with A-431 (Homo sapiens, A-431, 72 h), 968 nM. Moreover, the “A-431/NCI-H1975 Selectivity” value in the test with NCI-H1975 is 39.5.

`C=CC(=O)Nc1cc(Nc2cc(-c3ccc4c(cnn4C)c3)ncn2)c(OC)cc1N1CCN(C2CC2)CC1` [compound 143]: the IC50 in the test on NCI-H1975 was 51.6 nM; in the test on PC-9 (Homo sapiens, PC-9, 72 h), 23.5 nM; in the test on A-431 (Homo sapiens, A-431, 72 h), 988 nM. The “A-431/NCI-H1975 Selectivity” value with NCI-H1975 is given as 19.2.

Regarding `C=CC(=O)Nc1cc(Nc2cc(-c3ccc4c(cnn4C)c3)ncn2)c(OC(F)F)cc1N1CCN(CCOC)CC1` [compound 145], the IC50 in the test with NCI-H1975 stood at 37.1 nM; in the test on PC-9 (Homo sapiens, PC-9, 72 h), 33.7 nM; in the test on A-431 (Homo sapiens, A-431, 72 h), 1460 nM. The “A-431/NCI-H1975 Selectivity” value in the test with NCI-H1975 is on record as 39.3.

As to `C=CC(=O)Nc1cc(Nc2cc(-c3ccc4c(cnn4C)c3)ncn2)c(OC(F)F)cc1N1CCC(N2C[C@@H](C)N(C)[C@@H](C)C2)CC1` [compound 146], the IC50 in the test with NCI-H1975 was found to be 10.2 nM; in the test on PC-9 (Homo sapiens, PC-9, 72 h) it was 14.9 nM; in the test on A-431 (Homo sapiens, A-431, 72 h) it was 800 nM. In addition, in the test with NCI-H1975, the “A-431/NCI-H1975 Selectivity” value amounted to 78.5.

As for `C=CC(=O)Nc1cc(Nc2cc(-c3ccc4c(cnn4C)c3)ncn2)c(OC(F)F)cc1N1CCC(N2CCN(C(C)C)CC2)CC1` [compound 147], the IC50 in the test on NCI-H1975 came to 18.4 nM; in the test on PC-9 (Homo sapiens, PC-9, 72 h) it was 24.7 nM; in the test with A-431 (Homo sapiens, A-431, 72 h) it was 978 nM. The “A-431/NCI-H1975 Selectivity” value in the test on NCI-H1975 stood at 53.2.

With `C=CC(=O)Nc1cc(Nc2cc(-c3ccc4c(cnn4C)c3)ncn2)c(OC(F)F)cc1N1CCC(N2C[C@@H](C)O[C@@H](C)C2)CC1` [compound 148], the IC50 amounted to 28.7 nM in the test on NCI-H1975; 31.9 nM in the test with PC-9 (Homo sapiens, PC-9, 72 h); 1350 nM in the test with A-431 (Homo sapiens, A-431, 72 h). In addition, the “A-431/NCI-H1975 Selectivity” value in the test with NCI-H1975 amounted to 46.9.

Turning to `C=CC(=O)Nc1cc(Nc2cc(-c3ccc4c(cnn4C)c3)ncn2)c(OC(F)F)cc1N1CCN(CC2CC2)CC1` [compound 149], the concentration for half-maximal inhibition (IC50) in the test with NCI-H1975 turned out to be 28.4 nM; in the test with PC-9 (Homo sapiens, PC-9, 72 h) it was 674 nM; in the test with A-431 (Homo sapiens, A-431, 72 h), 1370 nM. In addition, the “A-431/NCI-H1975 Selectivity” value in the test on NCI-H1975 was 48.2.

Take `C=CC(=O)Nc1cc(Nc2cc(-c3ccc4c(cnn4C)c3)ncn2)c(OC(F)F)cc1N1CCC(N2CCCC2)CC1` [compound 150]: the IC50 in the test with NCI-H1975 came to 5.3 nM; with PC-9 (Homo sapiens, PC-9, 72 h), 19.3 nM; in the test on A-431 (Homo sapiens, A-431, 72 h), 543 nM. Also, in the test on NCI-H1975, the “A-431/NCI-H1975 Selectivity” value was found to be 102.5.

Consider `C=CC(=O)Nc1cc(Nc2cc(-c3ccc4c(cnn4C)c3)ncn2)c(OC(F)(F)F)cc1N(C)CCN(C)C` [compound 151], for which the IC50 with NCI-H1975 turned out to be 58.9 nM; in the test with PC-9 (Homo sapiens, PC-9, 72 h), 79.9 nM; in the test on A-431 (Homo sapiens, A-431, 72 h), 2050 nM. Besides, the “A-431/NCI-H1975 Selectivity” value in the test on NCI-H1975 is 34.7.

As to `C=CC(=O)Nc1cc(Nc2cc(-c3ccc4c(cnn4C)c3)ncn2)c(OC)cc1N1CCC(N2CCOCC2)CC1` [compound 152], the IC50 was found to be 23.6 nM in the test on NCI-H1975, 43.2 nM in the test with PC-9 and 1970 nM in the test with A-431. In addition, in the test on NCI-H1975, the “A-431/NCI-H1975 Selectivity” value is on record as 83.3.

Consider `C=CC(=O)Nc1cc(Nc2cc(-c3ccc4c(cnn4C)c3)ncn2)c(OC(F)F)cc1N1CCN(C2CCOCC2)CC1` [compound 153], for which the IC50 in the test with NCI-H1975 turned out to be 25 nM; in the test on PC-9 (Homo sapiens, PC-9, 72 h) it was 35.1 nM; in the test with A-431 (Homo sapiens, A-431, 72 h), 1320 nM. The “A-431/NCI-H1975 Selectivity” value in the test on NCI-H1975 is given as 53.0.

Regarding `C=CC(=O)Nc1cc(Nc2cc(-c3ccc4cnn(C)c4c3)ncn2)c(OC)cc1N1C[C@@H](C)N(C)[C@@H](C)C1` [compound 154], the IC50 in the test with NCI-H1975 was found to be 34.7 nM; in the test on PC-9 (Homo sapiens, PC-9, 72 h) it was 36.4 nM; in the test on A-431 (Homo sapiens, A-431, 72 h), 1400 nM.

As to `C=CC(=O)Nc1cc(Nc2cc(-c3ccc4cnn(C)c4c3)ncn2)c(OC)cc1N1CCC(N2C[C@@H](C)N(C)[C@@H](C)C2)CC1` [compound 156], the IC50 in the test on NCI-H1975 stood at 25.1 nM; in the test with PC-9 (Homo sapiens, PC-9, 72 h), 2.7 nM; in the test on A-431 (Homo sapiens, A-431, 72 h), 1240 nM. The “A-431/NCI-H1975 Selectivity” value in the test on NCI-H1975 amounted to 49.5.

Regarding `C=CC(=O)Nc1cc(Nc2cc(-c3ccc4cnn(C)c4c3)ncn2)c(OC)cc1N1CCC(N2CCN(C(C)C)CC2)CC1` [compound 157], the concentration for half-maximal inhibition (IC50) in the test on NCI-H1975 was 32.7 nM; in the test on PC-9 (Homo sapiens, PC-9, 72 h), 11 nM; in the test with A-431 (Homo sapiens, A-431, 72 h), 1650 nM. Further, the “A-431/NCI-H1975 Selectivity” value in the test with NCI-H1975 turned out to be 50.6.

With `C=CC(=O)Nc1cc(Nc2cc(-c3ccc4cnn(C)c4c3)ncn2)c(OC)cc1N1CCN(CCOC)CC1` [compound 159], the IC50 in the test on NCI-H1975 was found to be 31.9 nM; with PC-9 (Homo sapiens, PC-9, 72 h), 27.9 nM; with A-431 (Homo sapiens, A-431, 72 h), 1530 nM.

For `C=CC(=O)Nc1cc(Nc2cc(-c3ccc4cnn(C)c4c3)ncn2)c(OC(F)F)cc1N1C[C@@H](C)C(N)[C@@H](C)C1` (stereo partly drawn) [compound 160], the IC50 with NCI-H1975 is 39.2 nM; with PC-9 (Homo sapiens, PC-9, 72 h), 32.7 nM; in the test with A-431 (Homo sapiens, A-431, 72 h) it was 2080 nM. Also, the “A-431/NCI-H1975 Selectivity” value in the test on NCI-H1975 came out at 53.0.

As to `C=CC(=O)Nc1cc(Nc2cc(-c3ccc4cnn(C)c4c3)ncn2)c(OC(F)F)cc1N1CCC(N2CCOCC2)CC1` [compound 161], the half-inhibitory concentration (IC50) with NCI-H1975 amounted to 17.4 nM; in the test on PC-9 (Homo sapiens, PC-9, 72 h) it was 19.9 nM; with A-431 (Homo sapiens, A-431, 72 h), 1030 nM. The “A-431/NCI-H1975 Selectivity” value in the test on NCI-H1975 stood at 59.3.

With `C=CC(=O)Nc1cc(Nc2cc(-c3ccc4cnn(C)c4c3)ncn2)c(OC(F)F)cc1N1CCC(N2C[C@@H](C)O[C@@H](C)C2)CC1` [compound 162], the half-maximal inhibitory concentration (IC50) in the test on NCI-H1975 amounted to 16.8 nM; with PC-9 (Homo sapiens, PC-9, 72 h), 18.9 nM; in the test with A-431 (Homo sapiens, A-431, 72 h), 763 nM. For the same molecule, the “A-431/NCI-H1975 Selectivity” value in the test with NCI-H1975 is given as 45.4.

In the case of `C=CC(=O)Nc1cc(Nc2cc(-c3ccc4cnn(C)c4c3)ncn2)c(OC(F)F)cc1N1CCC(N2C[C@@H](C)N(C)[C@@H](C)C2)CC1` [compound 163], the IC50 in the test on NCI-H1975 was found to be 18.5 nM; in the test on PC-9 (Homo sapiens, PC-9, 72 h), 13.8 nM; in the test on A-431 (Homo sapiens, A-431, 72 h), 834 nM. For the same molecule, the “A-431/NCI-H1975 Selectivity” value in the test on NCI-H1975 came to 45.1.

Consider `C=CC(=O)Nc1cc(Nc2cc(-c3ccc4cnn(C)c4c3)ncn2)c(OC(F)F)cc1N(C)C1CCN(C)C1` (stereo not drawn) [compound 165], for which the IC50 stood at 50 nM with NCI-H1975; 40.7 nM with PC-9 (Homo sapiens, PC-9, 72 h); 2650 nM in the test on A-431 (Homo sapiens, A-431, 72 h). Moreover, the “A-431/NCI-H1975 Selectivity” value in the test with NCI-H1975 amounted to 53.0.

Take `C=CC(=O)Nc1cc(Nc2cc(-c3ccc4cnn(C)c4c3)ncn2)c(OC)cc1N1CCC(N(CC)CC)CC1` [compound 166]: the IC50 came to 16 nM in the test on NCI-H1975; 8.9 nM with PC-9 (Homo sapiens, PC-9, 72 h); 986 nM in the test on A-431 (Homo sapiens, A-431, 72 h).

As to `C=CC(=O)Nc1cc(Nc2cc(-c3ccc4cnn(C)c4c3)ncn2)c(OC(F)F)cc1N1CCC(N(CC)CC)CC1` [compound 167], the half-maximal inhibitory concentration (IC50) turned out to be 16.5 nM in the test with NCI-H1975; 17.1 nM in the test with PC-9 (Homo sapiens, PC-9, 72 h); 1050 nM in the test with A-431 (Homo sapiens, A-431, 72 h).
